Literature values, collected in patent US9862672B2, “Antioxidant-based poly(anhydride-esters)” (RUTGERS, THE STATE UNIVERSITY OF NEW JERSEY, priority 2013, dated 2018).

Conditions: in vivo

COc1cc(/C=C/C(=O)O)ccc1O [Ferulic acid]
Elimination half-life: less than 2 hours
